Results reported in patent US5795882A, “Method of treating prostatic diseases using delayed and/or sustained release vitamin D formulations” (Bone Care International, Inc., priority 1996, dated 1998).

Legend:
[1] = In vitro thermal conversion of 1α-hydroxyprevitamin D to 1α-hydroxyvitamin D; format: physicochemical; details: in ethanol, 37° C.
Description: A series of experiments were conducted which address the in vitro conversion of previtamin to vitamin for three 1α-hydroxyprevitamin D's: 1α-hydroxyprevitamin D2, 1α,24-dihydroxyprevitamin D2 and 1α-hydroxyprevitamin D3. Each 1α-hydroxyprevitamin D was dissolved in ethanol, incubated at 37° C. in a water bath, and samples taken at two-hour intervals. An analytical HPLC separation was performed on each sample to quantify the thermal conversion of the previtamin to the vitamin form. The data collected were normalized to account for the presence of any vitamin form in the initial formulation (≤10%). The results are presented in FIG. 1 which is a plot of % previtamin versus time in hours. Linear regression lines were generated for each previtamin.

[2] = test system: advanced androgen-independent prostate cancer; assay: Clinical study in advanced androgen-independent prostate cancer; format: in vivo, human; details: for progression of metastatic disease (CAT scans, x-rays, bone scans): two years
Description: Patients with advanced androgen-independent prostate cancer participate in an open-labeled study of 1α,24-(OH)2 preD2. […] On admission to the study , patients begin a course of therapy with oral 1α,24-(OH)2 preD2 lasting 26 weeks, while discontinuing any previous use of calcium supplements, vitamin D supplements, and vitamin D hormone replacement therapies. During treatment, the patients are monitored at regular intervals for: (1) hypercalcemia, hyperphosphatemia, hypercalciuria, hyperphosphaturia and other toxicity; (2) evidence of changes in the progression of metastatic disease; and (3) compliance with the prescribed test drug dosage.
The study is conducted in two phases. During the first phase, the maximal tolerated dosage (MTD) of daily oral 1α,24-(OH)2 preD2 is determined by administering progressively higher dosages to successive groups of patients. All doses are administered in the morning before breakfast. The first group of patients is treated with 25 μg of 1α,24-(OH)2 preD2. Subsequent groups of patients are treated with 50, 75 and 100 μg/day. Dosing is continued uninterrupted for the duration of the study unless serum calcium exceeds 11.6 mg/dL or other toxicity of grade 3 or 4 is observed, in which case dosing is held in abeyance until resolution of the observed toxic effect(s) and then resumed at a level which has been decreased by 10.0 μg.
During the second phase, patients are treated with 1α,24-(OH)2 preD2 for 24 months at 0.5 and 1.0 times the MTD.
The study of Example 25 is repeated for the active vitamin D compound, 1α,25-(OH)2 D2 in DSR form.

Vitamin D Receptor = target: T1, Vitamin D Receptor (Homo sapiens, UniProt P11473); assay: VDR competitive binding assay (Examples 6-8); details: in words; Examples 7 and 8 versus the vitamin form
T1 sequence (P11473 1-427): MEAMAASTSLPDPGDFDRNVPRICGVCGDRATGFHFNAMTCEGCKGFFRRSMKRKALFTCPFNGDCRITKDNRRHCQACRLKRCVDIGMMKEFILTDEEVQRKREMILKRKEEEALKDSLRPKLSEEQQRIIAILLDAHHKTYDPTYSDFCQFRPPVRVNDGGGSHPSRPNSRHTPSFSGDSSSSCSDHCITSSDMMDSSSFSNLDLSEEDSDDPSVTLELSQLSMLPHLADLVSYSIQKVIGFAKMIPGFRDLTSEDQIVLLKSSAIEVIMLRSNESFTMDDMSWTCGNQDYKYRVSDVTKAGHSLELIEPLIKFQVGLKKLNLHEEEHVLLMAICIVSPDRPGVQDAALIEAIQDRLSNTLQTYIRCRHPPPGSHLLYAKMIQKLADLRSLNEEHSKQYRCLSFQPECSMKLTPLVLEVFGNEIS

[3] = Oral bioavailability of 1α,24-(OH)2 preD2 in normal rats (Example 2); format: in vivo, rat
Description: In this experiment, normal rats maintained on a normal diet were assigned randomly to treatment and control groups. The rats were orally administered single doses of 1α,24-(OH)2 preD2 in a fractionated coconut oil (FCO) (1.5 μg, which was approximately 7.5 μg/kg). The control group received only the vehicle. For both groups, blood was obtained at 6 hours postdosing and analyzed for serum levels of the vitamin form, 1α,24-dihydroxyvitamin D2.

[4] = Comparison of oral bioavailability in rachitic rats (Example 5); format: in vivo, rat; details: oral, 12 h
Description: Three-week-old rats were maintained on a vitamin D-deficient diet containing normal levels of calcium and phosphorus for 3-6 weeks until marked hypocalcemia was observed. […] A control group received only the vehicle. For all treatment groups, blood was obtained at 12 hours postdosing, and analyzed for serum levels of the vitamin form.

[5] = Equilibration of previtamin to vitamin form during binding incubation (HPLC); format: physicochemical; details: end of the VDR binding incubation, read-out: fraction equilibrated to the vitamin form
[6] = Blood level of 1α,25-(OH)2 D3 in vitamin D-deficient rats after oral dosing (Example 3); format: in vivo, rat; details: oral 0.25 μg/kg, 4 h
Description: Male weanling rats are fed a diet deficient in vitamin D and with normal calcium (0.47%). […] Four hours after administration, the rats are killed and their blood level of 1α,25-(OH)2 D3 is measured using a standard technique.

[7] = Pharmacokinetics of 1α,25-(OH)2 D3 in vitamin D-deficient rats after oral dosing (Example 4); format: in vivo, rat; details: single oral dose, 2-48 h
Description: One group is killed 8 hours after dosing with the vehicle. […] The blood is collected and analyzed for 1α,25-(OH)2 D3 levels.

CC1=C(/C=C\C2=CCC[C@]3(C)[C@@H]([C@H](C)/C=C/C(C)(O)C(C)C)CC[C@@H]23)C[C@@H](O)C[C@@H]1O (stereo partly drawn) [1α,24-(OH)2 preD2, 1α,24-dihydroxyprevitamin D2]
half-life [1]: 12.2 h
bone pain associated with metastatic disease ([2]; patients treated with the MTD for at least six months): significantly diminished
circulating levels of 1α,25-(OH)2 D3 ([2]; patients, daily oral): suppressed, often to undetectable levels
levels of circulating 1α,24-(OH)2 D2 versus dosage ([2]; patients, daily oral): increase proportionately with the dosage administered
serum and urine calcium ([2]; patients, daily oral): elevated in a dose responsive manner
maximal tolerated dosage (MTD) ([2]; patients, daily oral, first phase): above 20.0 μg/day
progression of metastatic disease (CAT scans, x-rays, bone scans) ([2]; higher dosage (1.0 times the MTD)): partial or complete remission
progression of metastatic disease (CAT scans, x-rays, bone scans) ([2]; lower dosage (0.5 times the MTD)): stable disease or partial remission
VDR binding affinity (Vitamin D Receptor): substantially less affinity for the receptor than does its vitamin form
oral bioavailability (increased circulating 1α,24-(OH)2 D2) [3]: bioavailable

CC1=C(/C=C\C2=CCC[C@]3(C)[C@@H]([C@H](C)CCCC(C)(C)O)CC[C@@H]23)C[C@@H](O)C[C@@H]1O [1α,25-(OH)2 preD3, 1α,25-dihydroxyprevitamin D3]
oral bioavailability versus 1α,25-(OH)2 D3 [4]: greater bioavailability than the active form of the vitamin
half-life [1]: 17.7 h
degraded [5]: ~2%
blood level of 1α,25-(OH)2 D3 versus control [6]: significantly elevated
1α,25-(OH)2 D3 serum levels [7]: increased 1α,25-(OH)2 D3 serum levels
time profile of serum 1α,25-(OH)2 D3 increase versus dosing with 1α,25-(OH)2 D3 [7]: more gradual and sustained for a greater duration
